Source: patent US10357577B2, “Bacterial nitroreductase enzymes and methods relating thereto” (AUCKLAND UNISERVICES LIMITED, priority 2010, dated 2019)
Entries after “also recorded” stand apart in the source; their conditions may differ.

Experiments:
[1] = system: 25% HCT-116^nfsB/75% HCT-116^WT or 25% HCT-116^nfsA/75% HCT-116^WT tumours; assay: Tumour xenograft growth delay; format: in vivo, NIH-III nude mice; settings: single dose i.p. PR-104 1000 μmol/kg
Procedure: FIG. 18 illustrates in vivo activity of PR-104 in 25% nfsB or 25% nfsA tumours. Average tumour volume and Kaplan-Meier growth plots for tumours grown subcutaneously on NIH-III mice. Tumours were composed of either 25% HCT-116^nfsB/75% HCT-116^WT or 25% HCT-116^nfsA/75% HCT-116^WT. When tumours reached 7 mm^2 mice (n=8-11 per group) were randomly assigned to a treatment group and injected with a single dose (i.p.) of PBS (control) or PR-104 (1000 μmol/kg). Tumour measurements were recorded twice weekly and mice were culled when tumours exceeded a mean diameter of […].
Specific pathogen-free female homozygous NIH-III nude mice (CrI:NIH-Lyst^bgFoxn1^nuBtk^xid; Charles River Laboratories) were housed in Techniplast microisolator cages and fed Harlan Teklad diet 2018i. […] Tumours were monitored using electronic calipers and mice were randomised into treatment groups once their tumours reached 7×7 mm in diameter. Tumour size and body weight were determined three times weekly. Tumour volume was calculated as π (I×w^2)/6, where I is the major axis and w is the perpendicular minor axis. […] The median time for tumours to increase in volume 4-fold relative to pretreatment volume (RTV-4) was determined, and the specific growth delay (SGD) was calculated as the percentage increase in RTV-4 for treated versus control groups. […]

[2] = target: T1, NfsB(Ec) (Escherichia coli, UniProt P38489); assay: Growth Inhibition assay, NTR over-expressing E. coli SOS-R2; format: cell-based; settings: elevated substrate concentrations (400 μM F-MISO, 600 μM HX4)
T1 construct: expressed in transfected cells; host or cells: E. coli SOS-R2 (endogenous nfsA, nfsB, nemA and azoR deleted) carrying pUCX::ntr
Procedure: FIG. 34 (B) illustrates the metabolism of F-MISO by members of the 58 NTR over-expression library as measured by Growth Inhibition assay as described for FIG. 34A except that cells were challenged with 400 μM F-MISO.
FIG. 35 (B) illustrates the metabolism of HX4 by members of the 58 NTR over-expression library as measured by Growth Inhibition assay as described for FIG. 35A except that cells were challenged with 600 μM HX4.
Individual microtiter plate wells containing 200 μl LB+amp, 0.4% glucose were inoculated with SOS-R2 pUCX::ntr strains and incubated overnight at 30° C., 200 rpm. Ten μl of the overnight culture were used to inoculate 190 μl of fresh assay media (LB+amp, 0.05 mM IPTG, 0.2% glucose) and incubated at 30° C., 200 rpm for 3 h. The 200 μl culture was split into 100 μl duplicates which were supplemented with either 100 μl challenge media (assay media+250 uM EF5+2% DMSO) or 100 μl control media (assay media+2% DMSO). Initial OD600 readings were recorded and then plates incubated at 30° C., 200 rpm for 4 h after which final OD600 readings were taken and used to calculate strains respective growth inhibition in EF5 presence.

[3] = system: HCT116 cells expressing NfsB homologue P. putida 2432; assay: Monolayer antiproliferative (IC50) assay, NTR-expressing HCT116; format: cell-based, human; settings: 18 hrs exposure, 5 days regrowth
Procedure: (§1) FIGS. 10 (B) and 10 (C) illustrates the results of evaluation of 2-nitroimidazole clinical imaging candidates with E. coli and non-E. coli NTRs. Stably-expressing cells were treated with varying concentration of 2-nitroimidazole prodrugs diluted in αMEM+5% FCS+P/S. Cells were exposed to prodrug for 18 hrs, washed and left to regrow for 5 days. IC50 was determined as the concentration of prodrug required to inhibit cell growth by 50% of untreated controls. IC50 values are mean for ≥2 independent experiments. WT:NTR ratio-ratio of IC50 means from WT cells versus NTR-expressing cell lines.
(§2) Isolated NTR gene sequences were subject to PCR and introduced in the bicistronic plasmid F579 via Gateway cloning (Invitrogen) as described by Prosser et al. (2010, Biochem Pharmacol, 79, 678-687). Stably transfected cell lines were created by transfection of the relevant plasmid using FuGENE 6 Transfection Reagent (Roche). Transfected cell populations were maintained by passage in puromycin
(§3) Cells were passaged in alpha-Minimal Essential Media, (αMEM; Gibco) supplemented with 5% FBS, (GIBCO NZ) without antibiotics. Cell were passaged for <3 months from frozen stocks and confirmed Mycoplasma free (PCR-ELISA; Roche Diagnostics). […] Plates were read on an ELx 808 Absorbance Microplate Reader (Bio-Tek Instruments). Absorbance was measured at 490 nm and 450 nm (final absorbance 490-450). […]

[4] = system: HCT116 cells expressing E. coli NfsB; assay: as above; format: cell-based, human; settings: 18 hrs exposure, 5 days regrowth
Procedure: as §1
as §1, with “FIG. 21” for “FIGS. 10 (B) and 10 (C)”, “antiproliferative activity (IC50 value)” for “the results”, “prodrug” for “evaluation of 2-nitroimidazole clinical imaging”, “nitroreductases.” for “NTRs.”, “prodrug” for “2-nitroimidazole prodrugs”, “ratio-interexperimental ratio” for “ratio-ratio”
as §2
as §3, with “Diagnostics). Cells were aliquoted into the 96-well plate (100 μL/well) and cells were left to attach (≥4 hrs).” for “Diagnostics).”

[5] = system: ONYX-411^NfsB infected HCT-116WT cells; assay: Cytopathic effect assay, replicating adenovirus expressing E. coli NfsB; format: cell-based; settings: metronidazole refreshed every 2 days, read on day 9
Procedure: (§4) FIG. 31 illustrates the cytoprotective effects of NfsB dependent activation of metronidazole by conditionally replicating virus ONYX411^NfsB. HCT-116WT cells were seeded overnight and the top wells were infected with 0.125 MOI for ONYX411-nfsB and 1 MOI for ONYX411-WT with 2-fold serial dilutions. 24 hrs following infection media was replaced with fresh αMEM containing 2% FCS and varying concentrations of metronidazole, which was refreshed every 2 days. On day 9 wells were fixed with 10% TCA and stained with SRB and cell density analysed.
(§5) HCT-116WT cells were seeded overnight and the top wells were infected with 0.125 MOI of the replication competent adenovirus ONYX411-nfsB and 1 MOI for ONYX411-WT with 2-fold serial dilutions ((Singleton et al, 2007, Cancer Gene Ther 14 (12): 953-967). 24 hrs following infection media was replaced with fresh αMEM containing 2% FCS and varying concentrations of metronidazole, which was refreshed every 2 days. On day 9 wells were fixed with 10% TCA and stained with SRB and cell density analysed.

[6] = system: ONYX-411^WT infected HCT-116WT cells; assay: Cytopathic effect assay, control virus; format: cell-based, adenovirus; settings: metronidazole refreshed every 2 days, read on day 9
Procedure: as §4, §5

[7] = system: nitroreductase NfsA-expressing HCT116 'activator' cells; assay: MCL (multicellular layer) bystander experiment, NfsA-dependent activation; format: cell-based, human
Procedure: Displacement of the Target cell survival curve to the left (T to Tc) is indicative of the presence of a cytotoxic metabolite(s) able to diffusible out of the sensitive activator (A) cell population. The prodrug concentrations for 10% survival (C10) of target cells (wild-type cells) grown without activators (T), targets in co-culture (TC) and activators (nfsA-expressing cells) in co-culture (AC) were determined by interpolation. BEE-Bystander effect efficiency calculates the drugs bystander effect: ((Log C10T−Log C10TC)/(Log C10T−Log C10AC)).
The prodrug concentrations for 10% survival (C10) of target cells (wild-type cells) grown without activators (T), and targets in co-culture (TC) and activators (NTR-expressing cells) in co-culture (AC) can be determined. The bystander effect of a test prodrug is measured by the bystander effect efficiency which can be calculated using the algorithm ((Log C10T−Log C10TC)/(Log C10T−Log C10AC)).
Millicell-CM membrane inserts (Millipore) were coated in calf-skin collagen type III (Sigma-Aldrich) to facilitate cell attachment. […] After exposure, inserts were disaggregated (0.07% trypsin, 10 min, 37° C., followed by 100 μg/ml DNAase I (Sigma-Aldrich). Cells were counted, resuspended and plated in P60 dishes to determine clonogenic survival. To discriminate clonogenic activator (NTR+) from target (NTR−) colonies cells were plated in non-selective medium (total cells) and medium containing 1 μM puromycin (activator cells). Colonies were grown in a 37° C. 5% CO2 incubator for 10 days before staining with methylene blue (2 g/liter in 50% v/v aqueous ethanol). Colonies containing >50 cells were counted as clonogenic survivors. Surviving fractions for each population was calculated as the plating efficiency for drug-treated MCLs/untreated controls. The drug concentrations for 10% survival (C10) of target cells grown without activators (T), targets in co-culture (Tc) and activators in co-culture (Ac) was determined by interpolation.

[8] = Human plasma concentration-time (AUC) and tolerability; format: in vivo; settings: 50 μM metronidazole exposure, achievable in humans, read-out: human AUC equivalent to the protective exposure

T1 sequence (P38489 whole entry): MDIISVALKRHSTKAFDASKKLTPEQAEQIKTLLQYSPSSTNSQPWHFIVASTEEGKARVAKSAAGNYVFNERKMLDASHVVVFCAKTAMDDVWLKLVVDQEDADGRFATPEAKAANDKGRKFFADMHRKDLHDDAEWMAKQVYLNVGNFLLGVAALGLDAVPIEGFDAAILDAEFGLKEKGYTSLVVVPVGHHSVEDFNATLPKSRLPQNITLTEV

Structure (SMILES): CS(=O)(=O)OCCN(CCBr)c1c(C(=O)NCCOP(=O)(O)O)cc([N+](=O)[O-])cc1[N+](=O)[O-] [PR-104, 2-((2-bromoethyl)(2,4-dinitro-6-((2-(phosphonooxy)ethyl)carbamoyl)phenyl)amino)ethyl methanesulfonate]
- PR-104 dependent growth delay, nfsB versus nfsA tumours (in words) [1]: similar, with no statistically significant difference

Structure (SMILES): O=[N+]([O-])c1nccn1CC(O)CF (stereo not drawn) [F-MISO, 1-fluoro-3-(2-nitro-1H-imidazol-1-yl)propan-2-ol]
- activity with 2-NI substrate (in words) [2]: substantial activity
- sensitivity to 2-nitroimidazoles (in words) [3]: modest sensitivity
- sensitivity to 2-nitroimidazoles (in words) [4]: modest sensitivity

Structure (SMILES): Cc1ncc([N+](=O)[O-])n1CCO [Metronidazole, 2-(2-methyl-5-nitro-1H-imidazol-1-yl)ethanol]
- concentration range with reduction in oncolytic activity [5]: 50 to 500 µM
- effect on oncolytic activity (in words) [6]: no inhibitory effects
- bystander property (in words) ([7]; MCL of NTR-expressing and parental HCT116 cells): lack any measurable bystander effect; also recorded: zero bystander property
- estimated bystander effect efficiency (BEE) ([7]; hyperoxic (95% O2) MCLs, at concentrations achievable in α-MEM+10% FBS, activator fraction differs per experiment): 0%
- AUC [8]: 1200 µM·h
